Here are results for twelve compounds from US12030880B2, “Iminosulfanone compound as bromodomain protein inhibitor and pharmaceutical composition and medical use thereof” (CHIA TAI TIANQING PHARMACEUTICAL GROUP CO., LTD., priority 2018, dated 2024).

Molecules are shown by their SMILES.

One assay deals with BRD4 (BD2) (Homo sapiens (Human), UniProt O60885). The assay can be described thus: In vitro BRD4 (BD2) enzymatic activity assay (HTRF). The format is binding. To be noted: GST-BRD4 (BD2, 349-460 aa). As to the method: In the present application, IC50 values of the compounds in inhibiting BRD4 (BD2) enzyme binding reaction were determined by homogeneous time resolved fluorescence (HTRF). A compound was serially diluted 5-fold with 100% DMSO starting from 1 mM (7 concentrations in total), and then 2 μL of the compound at each concentration was added to 18 μL of a reaction buffer (20 mM HEPES pH 7.5, 150 mM NaCl, 5 mM DTT, 0.005% Tween 20, and 100 μg/mL BSA) for dilution. After being mixed well, 2 μL of the compound at each concentration was added to 48 μL of the above reaction buffer for dilution, and mixed well (final concentration of the compound in DMSO: 0.1%). 2.5 μL of the resulting mixture was added to a 384-well plate (OptiPlate-384, purchased from PerkinElmer), then 5 μL of GST-BRD4 (BD2, 349-460 aa) (final concentration: 2 nM) was added, and the resulting mixture was centrifuged, and fully mixed. 2.5 μL of a peptide Biotin-AHA-SGRGK(Ac)GGK(Ac)GLGK(Ac)GGAK(Ac) RHRKV (final concentration: 200 nM) was then added to initiate the reaction (total reaction volume: 10 μL). The 384-well plate was placed in an incubator at 23° C. to react for 1 hour, and then 5 μL of Eu3+ cryptate-labled anti-GST antibody (purchased from Cisbio) and 5 μL of Streptavidin-XL-665 (purchased from Cisbio) were added to terminate the reaction. After being incubated in the incubator for another 1 hour, the fluorescence values (excited at 320 nm, emitted light at 665 nm and 620 nm being detected, and the ratio of the two being the enzyme binding signal) were read on Envision (purchased from PerkinElmer). The binding strength of each compound to BRD4 (BD2) protein was determined respectively at 7 concentrations, and the data were calculated using GraphPad Prism software to obtain the IC50 value of the compound.

The next assay concerns the target BRD4 (BD1) (Homo sapiens (Human), UniProt O60885). Description: In vitro BRD4 (BD1) enzymatic activity assay (HTRF). It counts as binding. To be noted: GST-BRD4 (BD1, 44-168 aa). On the procedure:
In the present application, IC50 values of the compounds in inhibiting BRD4 (BD1) enzyme binding reaction were determined by homogeneous time resolved fluorescence (HTRF). A compounds was serially diluted 5-fold with 100% DMSO starting from 0.2 mM (7 concentrations in total), and then 2 μL of the compound at each concentration was added to 48 μL of a reaction buffer (20 mM HEPES pH 7.5, 150 mM NaCl, 5 mM DTT, 0.005% Tween 20, and 100 μg/mL BSA) for dilution, and mixed well. 2.5 μL of the resulting mixture was added to a 384-well plate (OptiPlate-384, purchased from PerkinElmer), then 5 μL of GST-BRD4 (BD1, 44-168 aa) (final concentration: 1 nM) was added, and the resulting mixture was centrifuged, and fully mixed. 2.5 μL of a short peptide Biotin-AHA-SGRGK(Ac)GGK(Ac)GLGK(Ac)GGAK(Ac) RHRKV (final concentration: 100 nM) was then added to initiate the reaction (total reaction volume: 10 μL). The 384-well plate was placed in an incubator at 23° C. to react for 1 hour, and then 5 μL of Eu3+ cryptate-labled anti-GST antibody (purchased from Cisbio) and 5 μL of Streptavidin-XL-665 (purchased from Cisbio) were added to terminate the reaction. After being incubated in the incubator for another 1 hour, the fluorescence values (excited at 320 nm, emitted light at 665 nm and 620 nm being detected, and the ratio of the two being the enzyme binding signal) were read on Envision (purchased from PerkinElmer). The binding strength of each compound to BRD4 (BD1) protein was determined respectively at 7 concentrations, and the data were calculated using GraphPad Prism software to obtain the IC50 value of the compound.
(In TR-FRET formats the signal depends on donor and acceptor labels being close together.)

A further assay deals with MV4-11 cells. Description: Cell proliferation activity assay in MV4-11. The format is cell-based. To be noted: Homo sapiens, inhibiting cell proliferation, 72 hours, Cell-Titer Blue. As to the method: (§1) Human acute lymphoblastic leukemia cell line MV4-11 cells were cultured in PRIM1640 medium plus 10% fetal bovine serum (FBS, purchased from Biological Industries, BI) and 1% penicillin/streptomycin double antibody (P/S, purchased from Life Technology) at 37° C. with 5% CO2. On the day before the compound test, MV4-11 cells were spread in a 96-well plate (purchased from Corning) at a concentration of 8000 cells/195 μL/well. After 24 hours, the compound was serially diluted 4-fold with 100% DMSO starting from 10 mM (9 concentrations in total), and then 2 μL of the compound at each concentration was added to 48 μL of PRIM1640 medium for dilution. 5 μL of the diluted compound at each concentration was added to the wells spread with the cell suspension, and the compound and cells were co-incubated in a cell incubator for 72 hours (3 days). Then the mixture was added with 35 μL of Cell-Titer Blue reagent (purchased from Promega) and incubated for another 4 hours. The fluorescence values (excited at 560 nm, detected at 590 nm) were then read on Flexstation III, and the data were calculated using GraphPad Prism software to give IC50 value of the compound in inhibiting cell proliferation.

The subject of the next assay is Kasumi-1 cells. The assay can be described thus: Cell proliferation activity assay in Kasumi-1. The note with it: Homo sapiens, inhibiting cell proliferation, 72 hours, Cell-Titer Blue. It counts as cell-based. As to the method: as §1, with “myeloblastic” for “lymphoblastic”, “Kasumi-1” for “MV4-11”, “20%” for “10%”, “5000” for “8000”

In the case of `Cc1cc(F)cc(C)c1Oc1ccc(N=S(C)(C)=O)cc1-c1cn(C)c(=O)c2[nH]c(C(=O)NCC(F)(F)F)cc12` [Example 22, 4-{5-{[dimethyl(oxo)-λ^6-sulfanylidene]amino}-2-(4-fluoro-2,6-dimethylphenoxy)phenyl}-6-methyl-7-oxo-N-(2,2,2-trifluoroethyl)-6,7-dihydro-1H-pyrrolo[2,3-c]pyridine-2-carboxamide], the figures for the IC50 against BRD4 (BD2) and at BRD4 (BD1) were 0.88 nM and 188 nM, respectively.
With `Cc1cccc(Cl)c1Oc1ccc(N=S(C)(C)=O)cc1-c1cn(C)c(=O)c2[nH]ccc12` [Example 6, 4-{2-(2-chloro-6-methylphenoxy)-5-[dimethyl(oxo)-λ^6-sulfanylidene]aminophenyl}-6-methyl-1,6-dihydro-7H-pyrrolo[2,3-c]pyridin-7-one], the IC50 (in general, the point on the concentration scale where inhibition reaches its midpoint) against BRD4 (BD2) was determined as 0.93 nM; against BRD4 (BD1), 26.4 nM; in the assay with MV4-11 cells it was 90.4 nM; with Kasumi-1 cells, 13.6 nM.
Regarding `Cc1cccc(Cl)c1Oc1ncc(N=S(C)(C)=O)cc1-c1cn(C)c(=O)c2[nH]ccc12` [Example 20, 4-{2-(2-chloro-6-methylphenoxy)-5-{[dimethyl(oxo)-λ^6-sulfanylidene]amino}-pyridin-3-yl}-6-methyl-1,6-dihydro-7H-pyrrolo[2,3-c]pyridin-7-one], the IC50 on BRD4 (BD2) worked out at 0.27 nM; at BRD4 (BD1), 12.9 nM; in the assay on MV4-11 cells it was 75 nM; in the assay with Kasumi-1 cells it was 9.25 nM.
In the case of `Cc1cn(-c2ccc(N=S(C)(C)=O)cc2-c2cn(C)c(=O)c3[nH]ccc23)ccc1=O` [Example 17, 4-{5-{[dimethyl(oxo)-λ^6-sulfanylidene]amino}-2-[3-methyl-4-oxopyridin-1(4H)-yl]phenyl}-6-methyl-1,6-dihydro-7H-pyrrolo[2,3-c]pyridin-7-one], the results for the IC50 against BRD4 (BD2) and on BRD4 (BD1) were 4 nM and 330 nM, respectively.
On the same counts, the results for `Cc1ncccc1Oc1ccc(N=S(C)(C)=O)cc1-c1cn(C)c(=O)c2[nH]ccc12` [Example 9, 4-{5-{[dimethyl(oxo)-λ^6-sulfanylidene]amino}-2-[(2-methyl-pyridin-3-yl)oxy]phenyl}-6-methyl-1,6-dihydro-7H-pyrrolo[2,3-c]pyridin-7-one] are 0.75 nM and 3 nM.
With `CCNC(=O)c1cc2c(-c3cc(N=S(C)(C)=O)cnc3Oc3c(C)cc(F)cc3C)cn(C)c(=O)c2[nH]1` [Example 16, 4-{5-{[dimethyl(oxo)-λ^6-sulfanylidene]amino}-2-(4-fluoro-2,6-dimethylphenoxy)pyridin-3-yl}-N-ethyl-6-methyl-7-oxo-6,7-dihydro-1H-pyrrolo[2,3-c]pyridine-2-carboxamide], the IC50 on BRD4 (BD2) turned out to be 0.4 nM; against BRD4 (BD1) it was 86.4 nM; with MV4-11 cells, 120 nM; in the assay with Kasumi-1 cells, 20.7 nM.
On the same counts, the results for `Cc1cc(F)cc(C)c1Oc1ccc(N=S(C)(C)=O)cc1-c1cn(C)c(=O)c2[nH]ccc12` [Example 11, 4-{5-{[dimethyl(oxo)-λ^6-sulfanylidene]amino}-2-(4-fluoro-2,6-dimethylphenoxy)phenyl}-6-methyl-1,6-dihydro-7H-pyrrolo[2,3-c]pyridin-7-one] are 1.3 nM, 29.4 nM, 124 nM and 53.2 nM.
With `Cn1cc(-c2cc(N=S3(=O)CCCC3)ccc2Oc2ccc(F)cc2F)c2cc[nH]c2c1=O` [Example 15, 4-{2-(2,4-difluorophenoxy)-5-[(1-oxidotetrahydro-1λ^6-thiophen-1-ylidene)amino]phenyl}-6-methyl-1,6-dihydro-7H-pyrrolo[2,3-c]pyridin-7-one], the IC50 on BRD4 (BD2) stood at 1.2 nM; on BRD4 (BD1), 4.5 nM; in the assay on MV4-11 cells, 9.1 nM; in the assay with Kasumi-1 cells, 13.7 nM.
For `CCNC(=O)c1cc2c(-c3cc(N=S(C)(C)=O)cnc3Oc3c(C)cccc3Cl)cn(C)c(=O)c2[nH]1` [Example 21, 4-{2-(2-chloro-6-methylphenoxy)-5-{[dimethyl(oxo)-λ^6-sulfanylidene]amino}-pyridin-3-yl}-N-ethyl-6-methyl-7-oxo-6,7-dihydro-1H-pyrrolo[2,3-c]pyridine-2-carboxamide], in that order: 0.13 nM, 10.7 nM, 138 nM and 18 nM.
Consider `Cn1cc(-c2cc(N=S(C)(C)=O)ccc2OCC2CCOC2)c2cc[nH]c2c1=O` (centres unmarked) [Example 12, 4-{5-{[dimethyl(oxo)-λ^6-sulfanylidene]amino}-2-[(tetrahydrofuran-3-yl)methoxy]phenyl}-6-methyl-1,6-dihydro-7H-pyrrolo[2,3-c]pyridin-7-one], for which the concentration for half-maximal inhibition (IC50) against BRD4 (BD2) came out at 1.1 nM; on BRD4 (BD1), 4.1 nM; with MV4-11 cells it was 27.8 nM; in the assay on Kasumi-1 cells, 20.7 nM.
In the case of `CCNC(=O)c1cc2c(-c3cc(N=S(C)(C)=O)ccc3Oc3ccc(S(C)(=O)=O)cc3)cn(C)c(=O)c2[nH]1` [Example 1, 4-{5-{[dimethyl(oxo)-λ^6-sulfanylidene]amino}-2-[4-(methylsulfonyl)phenoxy]phenyl}-N-ethyl-6-methyl-7-oxo-6,7-dihydro-1H-pyrrolo[2,3-c]pyridine-2-carboxamide], the IC50 in the assay on MV4-11 cells turned out to be 124 nM; with Kasumi-1 cells, 322 nM.
In the case of `Cn1cc(-c2cc(N=S(C)(C)=O)ccc2Oc2ccc(C#N)cc2F)c2cc[nH]c2c1=O` [Example 2, 4-{4-{[dimethyl(oxo)-λ^6-sulfanylidene]amino}-2-(6-methyl-7-oxo-6,7-dihydro-1H-pyrrolo[2,3-c]pyridin-4-yl)phenoxy}-3-fluorobenzonitrile], the IC50 with MV4-11 cells stood at 15.1 nM; in the assay on Kasumi-1 cells, 6.6 nM.
